# Laboratory results from patent US20220057378A1, “MICROBIAL MICROFLUIDIC BIOSENSOR” (priority 2015, published 2022).
# Tests used:
# [1] = system: E. coli MG1655/As3; assay: on-chip time-lapse induction of promoter construct (GFP, gill chip); format: cell-based
# Source text: The on-chip time-lapse induction response of each promoter construct in this table can be seen in FIG. 36. In each figure panel, the moment of toxin introduction is represented as a step in the red trace.
# [2] = system: E. coli MG1655/As7; assay: 8-strain chip induction (fluorescence induction ratio); format: cell-based; settings: toxin at t=0, pure water at t=2 hours; arsenic 0.2 μM
# Source text: (§1) An overview of the sensor can be seen in FIG. 39. In order to acquire the large amount of data required to successfully train the classifier, five replicates of the fully self-contained device prototype were built, in which the microfluidic devices are mounted and imaged using custom-designed optics as shown in some embodiments herein (Milestone 6.9). The majority of the data for this project was acquired using a novel microfluidic device capable of housing eight different bacterial strains that receive media from a shared source. […] The design was expanded to house 18 strains and we have begun taking data with this new chip to provide larger datasets to the classifier. A detailed CAD drawing of this device can be seen in FIG. 56. The 18 cell trapping regions are vacuum-loaded from 18 downstream fluidic ports. Long, serpentine channels upstream of the trapping regions serve as fluidic buffer zones to prevent the cross-contamination of strains while loading. The toxin concentration is controlled dynamically by a peristaltic pump that mixes a water/toxin combination (representing the source water stream) with a concentrated medium stock.
# (§2) In each panel, the time series data for the “on-target” responding strain is plotted in bold.
# [3] = system: E. coli MG1655/As1; assay: on-chip time-lapse induction of promoter construct (GFP, gill chip); format: cell-based
# Protocol: For on-chip induction experiments, strains were loaded into the device and grown in M9 minimal medium with 0.4% glucose and 50 μg/ml spectinomycin (for plasmid maintenance) for 2 days in the absence of toxin. Cells were imaged under 4× brightfield and GFP fluorescence filters on an Olympus IX-81 microscope every 2 min for 6 h under these non-inducing conditions to generate a fluorescence baseline. The toxin was then introduced to induce GFP expression and the cells were imaged every 2 min for 6 h.
# To determine the response to toxin induction, the raw fluorescence images before and after induction were compared. The image stacks were analyzed using a custom ImageJ script to measure the average GFP signal over time for each cell trap. Any linear trend in the uninduced fluorescence data due to cell growth was subtracted from the data. In this manner, the dynamic signal-to-noise ratio (SNR) was calculated as: (current fluorescence−mean uninduced fluorescence)/(standard deviation of uninduced fluorescence).
# This microfluidic platform was then used to measure the response of several toxin responsive promoter constructs identified from the literature and synthesized by Transcriptic. […] Note that SNR values greater than 2 indicate a significant response.
# [4] = system: As7 GFP construct; assay: arsenic detection with the GFP construct in a microfluidic device; format: cell-based
# Protocol: For comparison, the arsenic concentration used for testing the GFP construct in a microfluidic device was 130 nM, or 0.13 μM. Thus, replacing GFP with Lux promises to greatly increase the sensitivity of the biosensor.
# The arsenic sensor construct As7 was modified to replace the gfp gene with the luxCDABE operon, and relative induction (fluorescence or luminescence) of the two constructs was tested side-by-side using a Tecan Infinite M200 Pro plate reader (see FIG. 38). […] In contrast, the GFP construct was sensitive to arsenic only above a concentration of 26 nM. For comparison, we were able to detect an arsenic concentration of 130 nM using the GFP construct in a microfluidic device. Thus, replacing GFP with Lux promises to greatly increase the sensitivity of the biosensor.
# [5] = system: pZA47a; assay: SVM classification of GFP sensor responses (toxin / no toxin); format: cell-based, E. coli; settings: from classification accuracy and ROC curves
# Source text: (§3) Computational models to determine the threshold of detection for specific sensors based on models of experimental GFP responses. We used machine learning techniques to determine the relationships between the GFP output signal and the presence of a toxin. We have created a database containing the collected sensor response data. We have quantified the GFP threshold of detection for each sensor construct. We have constructed Receiver Operating Characteristic (ROC) curves for each sensor to achieve robust sensing. We constructed machine learning models capable of inferring the relationships between the GFP sensor responses and the presence or absence of a toxin at a given concentration. […] The optimal meta-parameters of the SVM classifier were determined by applying a 5-crossvalidation during the training phase (2). In order to have a reliable estimate of the performance of the model when deployed in real environments, we measured its performance over a set of samples (test patterns) not seen during the training phase. The SVM's performance was determined by the percentage of test samples correctly labeled as toxin/no toxin (classification accuracy). […]
# (§4) In order to have a reliable estimate of the performance of the model when deployed in real environments, we measured its performance over a set of samples (test patterns) not seen during the training phase. […]
# [6] = system: pRS18; assay: as above; format: cell-based, E. coli; settings: from classification accuracy and ROC curves; plasmid pRS18
# Source text: as §3, §4
# [7] = system: GFP sensor strains; assay: as above; format: cell-based; settings: from classification accuracy and ROC curves
# Source text: Computational models to determine the threshold of detection for specific sensors based on models of experimental GFP responses. We used machine learning techniques to determine the relationships between the GFP output signal and the presence of a toxin. We have created a database containing the collected sensor response data. We have quantified the GFP threshold of detection for each sensor construct. We have constructed Receiver Operating Characteristic (ROC) curves for each sensor to achieve robust sensing. We constructed machine learning models capable of inferring the relationships between the GFP sensor responses and the presence or absence of a toxin at a given concentration. The algorithm learns these relationships from a set of training samples (GFP sensor responses) defined by the set of experimental conditions from which they were generated. The aim of the algorithm is to provide a general method capable of determining the experimental conditions associated with GFP sensor responses through the use of historical data. Specifically, we have built classification models based on Support Vector Machines (SVMs), which is one of the most popular classifiers due to its excellent performance in many contexts and its solid mathematical basis (1). For each toxin and concentration, we solved a binary classification problem in which the positive class represents the presence of the toxin in water and the negative class is associated with clean environments. Patterns were constructed with features containing GFP sensor responses at various timestamps to capture the temporal dynamics of the GFP signal. The optimal meta-parameters of the SVM classifier were determined by applying a 5-crossvalidation during the training phase (2). In order to have a reliable estimate of the performance of the model when deployed in real environments, we measured its performance over a set of samples (test patterns) not seen during the training phase. The SVM's performance was determined by the percentage of test samples correctly labeled as toxin/no toxin (classification accuracy). 80% of samples were used for training the SVM models and the remaining 20% of samples was used to evaluate their effectiveness. We generated 20 random training/test partitions to have an estimate of performance independent of the data partition.
# Specifically, we have built classification models based on Support Vector Machines (SVMs), which is one of the most popular classifiers due to its excellent performance in many contexts and its solid mathematical basis. For each toxin and concentration, we solved a binary classification problem in which the positive class represents the presence of the toxin in water and the negative class is associated with clean environments. Patterns were constructed with features containing GFP sensor responses at various timestamps to capture the temporal dynamics of the GFP signal. The optimal meta-parameters of the SVM classifier were determined by applying a 5-crossvalidation during the training phase.
# In order to have a reliable estimate of the performance of the model when deployed in real environments, we measured its performance over a set of samples (test patterns) not seen during the training phase. The SVM's performance was determined by the percentage of test samples correctly labeled as toxin/no toxin (classification accuracy). 80% of samples were used for training the SVM models and the remaining 20% of samples was used to evaluate their effectiveness. We generated 20 random training/test partitions based on data collected in single-strain chips (no crosstalk data) to have an estimate of performance.
# [8] = system: E. coli MG1655/Cd1; assay: 8-strain chip induction (fluorescence induction ratio); format: cell-based; settings: toxin at t=0, pure water at t=2 hours; cadmium 0.05, lead 1.8 μM
# Source text: as §1, §2
# [9] = system: E. coli MG1655/Hg3; assay: as above; format: cell-based; settings: toxin at t=0, pure water at t=2 hours; cadmium 0.05, mercury 0.2 μM
# Source text: as §1, §2
# [10] = system: E. coli MG1655/Cr11; assay: as above; format: cell-based; settings: toxin at t=0, pure water at t=2 hours; chromium(VI) 0.5 μM
# Source text: as §1, §2
# [11] = system: E. coli MG1655/Co7; assay: as above; format: cell-based; settings: toxin at t=0, pure water at t=2 hours; chromium(VI) 0.5 μM
# Source text: as §1, §2
# [12] = system: E. coli MG1655 cells; assay: batch growth curves of cells exposed to toxin around the EPA limit; format: cell-based; settings: batch culture, levels around the EPA limit
# Source text: In determining the toxin concentrations for exposure, EPA limit was explored. […] The general strategy was to examine the cellular RNA response at toxin levels where the cells are responding specifically to the presence of the toxin without triggering a universal (and unspecific) cellular stress response.
# [13] = system: E. coli MG1655/Cu1; assay: 8-strain chip induction (fluorescence induction ratio); format: cell-based; settings: toxin at t=0, pure water at t=2 hours; copper 5, lead 1.8 μM
# Source text: as §1, §2
# [14] = 0.13 μM arsenic, 6 h induction, SNR > 2 = significant response
Molecule,threshold of detection [7] [µM],GFP response of strain Cd1 [8],GFP response of strain Hg3 [9],growth phase lag of cells exposed to toxin [12],GFP response of strain Cu1 [13],further results
[As] [Arsenic],,,,,,"SNR after 6 h [1, 14]: 33; Concentration Sensed in Microfluidic Device ([1]; arsR/parsR from E. coli genome, synthetic RBS): 0.13 µM; GFP response of strain As7 [2]: sensitively responding; SNR after 6 h [3, 14]: 20; Concentration Sensed in Microfluidic Device ([3]; arsR/parsR from E. coli plasmid, native RBS): 0.13 µM; arsenic concentration detected, GFP construct in microfluidic device [4]: 130 nM; threshold of detection [5]: 0.1 µM; threshold of detection [6]: 0.2 µM"
[Cd] [Cadmium],0.44,responding,responding,,,
[Cr+6] [Chromium(VI)],1.25,,,exhibited this growth phase lag,,GFP response of strain Cr11 [10]: responding; GFP response of strain Co7 [11]: responding
[Cu] [Copper],5,,,delay the onset of the exponential growth phase,sensitively responding,
[Pb] [Lead],1.8,responding at lesser magnitudes,,,responding at lesser magnitudes,
Mercury,1,,sensitively responding,did not exhibit this growth phase lag,,
